The inhibition is the change of the read-out against control, counted positive when it falls. In general, IC50 refers to the concentration that inhibits the measured activity by half. A word on the CC50: it is the concentration giving 50% cytotoxicity. A low value points to greater toxicity to the cells.

Results on four compounds are retold here after patent US9162993B2, “Preparation and pharmaceuticals of biphenyl benzamide-derived derivatives” (NATIONAL DEFENSE MEDICAL CENTER, priority 2012, dated 2015).

Data set [1] has as its system RANKL-induced resorption of osteoclast (RAW264.7 cells). The data set is described as follows: Pit formation assay (bone resorption activity). It counts as cell-based, murine. As to conditions: 5 μM, dentine slices, 4 days, FIG. 1B. As to the method: (§1) The compounds 1 to 24 of the present invention is tested by three pharmacological activity tests as follows: (1) MTT assay to test the RAW264.7 cell (murine monocyte/macrophage cell line) viability; (2) Tartrate-resistant acid phosphatase (TRAP) staining and activity analysis to investigate the cell differentiation activity; (3) The activity test of bone resorption (Pit formation assay).
By using pit formation assay, compounds 4 and 16 have effect on inhibition of resorption of osteoclast. RAW264.7 cells were cultured without compounds (compound 4 or compound 16, 5 μM) or treated with compounds (compound 4 or compound 16, 5 μM) in 24 well dentine slices plates in the presence of RANKL after 4 days, to identify the ability of resorption of osteoclast by observing the resorption pits formation. […] It was obvious that compound 4 or 16 could inhibit the RANKL-induced resorption of osteoclast (FIG. 3A to D).

Data set [2] deals with RANKL-induced osteoclast differentiation in RAW 264.7 cells. Put plainly: TRAP staining, RANKL-induced osteoclast differentiation (TRAP+ multinucleated cells). As to conditions: Mus musculus; for inhibition at 5 µM: RAW264.7, RAW 264.7 cells, RANKL (100 ng/mL), compounds at 5 μM, TRAP-positive multinucleated cells, read-out: Inhibition of MNCs (%); for IC50: RAW264.7, different concentrations of compound, FIG. 1A, read-out: TRAP inhibitory activity IC50. It counts as cell-based, murine. As to the method:
as §1
(§2) The synthesized difunisal derivatives, compounds 1 to 24, were pharmacologically tested to be identified the relationship between their structure and activity. Cell viability was measured by MTT assay in RAW 264.7 cells upon treatment with compounds at 5 μM. CC50 is the cytotoxic concentration that produces 50% (CC50) cell death. […] The multinucleated osteoclasts could be formed by RANKL-induced macrophage cell line […]. RAW 264.7 cells were cultured with the indicated in the presence of drug and RANKL (100 ng/mL). Numbers of TRAP-positive (TRAP^+) multinucleated cells (MNCs) were counted in the presence of RANKL to identify the relationship between osteoclast and bone formation. […] The compound 16 performed the best inhibitory effect in the TRAP staining. The compound 16 was a derivate from compound 4 and its structure was related to compound 4. Therefore, the compound 4 and 16 were performed by TRAP assay to evaluate the effect on osteoclast differentiation by different concentration of compounds. […] According to above result, it can be speculated that: (1) Due to different substitutes on benzene ring of difunisal, the inhibitory ability of RANKL-induced osteoclast differentiation would be different. (2) Due to the electron-withdrawing group substitutes of R1 and R4 on benzene ring, or electron-withdrawing group substitutes derivatives of R2 on benzene ring, such as compound 4. (R1═F and R4═F), compound 6 (R2═CF3), compound 9 (R2═CN) and compound 16 (R1═F and R4═F), (3) compound 4 (R1═F and R4═F) and compound 6 (R2═CF3), a cyclic derivate compound 16 (R1═F and R4═F) and compound 18 (R2═CF3), the inhibitory activity would be stronger.

The next data set has as its system NO production. The data set is described as follows: Measurement of NO concentrations (Griess reaction) in porcine chondrocytes. In kind it is cell-based. As to conditions: Sus scrofa, Chondrocyte, nitrite in supernatants, read-out: anti-inflammatory IC50 (μM) on NO production. Here is the method: Porcine cartilage was obtained from the hind leg joints of pigs. The synthesis of chondrocytes from cartilage was performed according to our previous report. After enzymatic digestion of articular cartilage with 2 mg/mL protease in serum-free Dulbecco's modified Eagle's medium (DMEM)/antibiotics, the specimens were then digested overnight with 2 mg/mL collagenase I and 0.9 mg/ml, hyaluronidase in DMEM containing 10% fetal bovine serum (FBS). The cells were collected, passed through a cell strainer (Becton Dickinson, Mountain View, Calif., USA), and cultured in DMEM containing 10% […] and antibiotics for 3-4 days before use.
The measurement of NO release was reflected by determination of its stable end product, nitrite, in supernatants. The Griess reaction was performed with the concentrations of nitrite measured by a spectrophotometer. In brief, an aliquot (100 μL) of culture supernatant was incubated with 50 μL of 0.1% sulfanilamide in 5% phosphoric acid and 50 μL of 0.1% N-1-naphthyl-ethylenediamine dihydrochloride. After 10 min of incubation at room temperature, the absorbance was measured at 550 nm wavelength with a plate reader (recall, Grodig, […]).

The nature of data set [3]: MTT assay, RAW264.7 cell viability. In kind it is cell-based. As to conditions: mouse; RAW 264.7 cells; cytotoxic concentration that produces 50% cell death. Here is the method: as §1, §2
In general terms: Tetrazolium assays rely on reduction of a dye to a coloured formazan, in cell work by metabolically active cells.

In another data set the test system is RAW 264.7 cells. The data set is described as follows: MTT assay, RAW264.7 cell viability. It counts as cell-based. As to conditions: MTT assay, compounds at 5 μM. As to the method: as §1, §2

With `O=C(Nc1cc(F)ccc1F)c1cc(-c2ccc(F)cc2F)ccc1O` [compound 4, N-(2,5-difluorophenyl)-2′,4′-difluoro-4-hydroxy-[1,1′-biphenyl]-3-carboxamide], in data set [1], the “resorbed area compared to the cell cultured without drug in the presence of RANKL” value was determined as 23.11±2.25%. Moreover, in data set [2], the inhibition at 5 µM was found to be 67.3 ± 4.38% and the half-inhibitory concentration (IC50) is 3.89 µM. Moreover, the half-maximal inhibitory concentration (IC50) in the data set with NO production was 0.71 µM. In data set [3], this compound returned a half-maximal cytotoxic concentration (CC50) of 14.6 µM. In addition, the “Cell viability (%)” value with RAW 264.7 cells was 102.46 ± 1.10%.

Consider `O=c1oc2ccc(-c3ccc(F)cc3F)cc2c(=O)n1-c1ccc(Cl)cc1F` [compound 13, 3-(4-chloro-2-fluorophenyl)-6-(2,4-difluorophenyl)-2H-benzo[e][1,3]oxazine-2,4(3H)-dione], for which the inhibition at 5 µM in data set [2] turned out to be 19.4 ± 1.4%. The IC50 with NO production came to 1.08 µM. Besides, the CC50 in data set [3] is over 20 µM. Moreover, the “Cell viability (%)” value in the data set with RAW 264.7 cells was 96.22 ± 0.53%.

Turning to `N#Cc1cccc(NC(=O)c2cc(-c3ccc(F)cc3F)ccc2O)c1` [compound 9, N-(3-cyanophenyl)-2′,4′-difluoro-4-hydroxy-[1,1′-biphenyl]-3-carboxamide], in data set [2], the inhibition at 5 µM was found to be 71.3 ± 3.39%. In addition, the half-maximal inhibitory concentration (IC50) in the data set with NO production was over 10 µM. In data set [3], this compound displayed a 50% cytotoxic concentration (CC50) of 12.3 µM. The “Cell viability (%)” value in the data set on RAW 264.7 cells came to 72.15 ± 0.36%.

Consider `O=c1oc2ccc(-c3ccc(F)cc3F)cc2c(=O)n1-c1cc(F)ccc1F` [compound 16, 6-(2,4-difluorophenyl)-3-(2,5-difluorophenyl)-2H-benzo[e][1,3]oxazine-2,4(3H)-dione], for which the “resorbed area compared to the cell cultured without drug in the presence of RANKL” value in data set [1] was 20.11±1.51%. The inhibition at 5 µM in data set [2] came out at 86.8 ± 1.74%. The figures for the IC50 (in data set [2]; in the data set on NO production) were under 2.5 µM and 1.15 µM, respectively. Besides, in data set [3], the 50% cytotoxic concentration (CC50) was 10.8 µM. In addition, the “Cell viability (%)” value with RAW 264.7 cells amounted to 86.60 ± 5.69%.
